We go through five molecules from article PMC12293755, “Synthesis and Cytotoxicity Evaluation of Denitroaristolochic Acids: Structural Insights and Mechanistic Implications in Nephrotoxicity” (Biomolecules, 2025).

As usually defined, the IC50 is the concentration needed to halve the response being measured.

Series [1] can be described thus: CCK-8 cytotoxicity assay in HK2 cells. It is filed as cell-based, human. To be noted: human, CCK-8, 24 h compound exposure, 3 to 1000 μM, ND: not detected, read-out: IC50 (μM), cytotoxic effects on HK2 cells in vitro. How it is done: (§1) This study systematically investigated the cytotoxic effects and structure-activity relationships of denitroaristolochic acid analogs (DAA-II, DAA-III, DAA-IV, DAA-V) on human renal cortical proximal tubular epithelial cells (HK2) using the cell counting kit-8 (CCK-8) assay. HK2 cells were maintained in Dulbecco’s modified eagle medium (DMEM) supplemented with 10% fetal bovine serum under standard culture conditions (37 °C, 5% CO2). At 80% confluence, cells were trypsinized and seeded into 96-well plates at a density of 1 × 10^4 cells/well, followed by a 4–6 h attachment period prior to compound exposure. Stock solutions ([…]) of each DAA were prepared in DMSO and serially diluted to final concentrations ranging from 3 to 1000 μM, with DMSO concentration strictly maintained at 0.5% (v/v) in all treatment groups. Experimental controls included AA-I as positive control and 0.5% DMSO-containing medium as vehicle control. Following 24 h compound exposure, cell viability was assessed using CCK-8 reagent according to manufacturer specifications: 10 μL CCK-8 solution was added to each well, followed by 2 h incubation under light-protected conditions. Absorbance was measured at 450 nm using a microplate reader, with morphological observations conducted via inverted phase-contrast microscopy.
(§2) This study systematically evaluated the cytotoxic effects of aristolochic acids (AAs) on HK2 cells (the HK2 cell lines were from the Cell Bank of the Chinese Academy of Sciences) using the CCK-8 assay. […] This finding provides novel insights into the toxicological mechanisms of aristolochic acid analogs, and their precise mode of action warrants further elucidation through integrated toxicological approaches, including metabolomic profiling, signaling pathway screening, and molecular docking studies.
On the technique in general: Formazan colour is commonly taken as a measure of viable cells.

The next series relates to HK2 cells. As to the kind of experiment: CCK-8 cytotoxicity assay in HK2 cells. The settings on record: CCK-8, 24 h compound exposure, 3 to 1000 μM. The series is classed as cell-based, human. As for the experimental part:
as §1, §2

Turning to `COc1cccc2c1cc([N+](=O)[O-])c1c(C(=O)O)cc3c(c12)OCO3` [AA-I, aristolochic acid I, reference compound], in series [1], the half-inhibitory concentration (IC50) at 24 h came out at 270 µM.

For `O=C(O)c1cc2c(c3c1ccc1ccccc13)OCO2` [DAA-II, phenanthro [3,4-d][1,3]dioxole-5-carboxylic acid], the “cytotoxicity in human renal proximal tubular epithelial cells (result in words)” value in the series on HK2 cells is recorded as “no detectable cytotoxicity”.

`COc1ccc2ccc3c(C(=O)O)cc4c(c3c2c1)OCO4` [DAA-III, 10-Methoxyphenanthro [3,4-d][1,3]dioxole-5-carboxylic acid]: the concentration for half-maximal inhibition (IC50) in series [1] came to 371 µM.

Turning to `COc1cc(OC)c2ccc3c(C(=O)O)cc4c(c3c2c1)OCO4` [DAA-IV, 8,10-dimethoxyphenanthro [3,4-d][1,3]dioxole-5-carboxylic acid], the half-inhibitory concentration (IC50) in series [1] stood at 515 µM. Consider `COc1cc2ccc3c(C(=O)O)cc4c(c3c2cc1OC)OCO4` [DAA-V, 9,10-Dimethoxyphenanthro [3,4-d][1,3]dioxole-5-carboxylic acid], for which the “cytotoxicity in human renal proximal tubular epithelial cells (result in words)” value in the series with HK2 cells was “no detectable cytotoxicity”.
